Test: Pharmacokinetics of EGCG after oral gavage to rats
Format: in vivo
Conditions: 100 mg/kg
Method: Groups of 10 200-g male rats were administered EGCG by oral gavage, in the form of the USLS prepared as in Example 3 (2.1 ml; 100 mg/kg body weight) or as an identical preparation of EGCG without USLS. Blood samples were collected at 5, 10, 30, 60, 120, and 480 minutes post administration. […] Within 5 minutes after oral administration, the USLS-sequestered compound produced a plasma concentration of 600 ng/ml and a peak plasma concentration of 605 ng/ml at 10 minutes post administration. The EGCG administered without sequestration in USLS produced a peak plasma concentration of only 150 ng/ml at 5 minutes post administration.
The pharmacokinetic parameters Cmax (maximum serum concentration), Tmax (time maximum serum concentration is reached), AUC (area under the curve), and Relative Bioavailability were determined from the plasma data and are presented in Table 1, below.

## O=C(O[C@@H]1Cc2c(O)cc(O)cc2O[C@@H]1c1cc(O)c(O)c(O)c1)c1cc(O)c(O)c(O)c1 [EGCG control, Epigallocatechin gallate]
  time of peak plasma concentration post administration: 5 min
FIG. 4
  peak plasma concentration of EGCG: 150 ng/mL
Table 1
  AUC (0-240 min): 14,261
  Cmax (maximum serum concentration): 116.57
  Tmax (time maximum serum concentration is reached): 5
